Laboratory results as given in patent EP2308847B1, “Substituted pyridines as inhibitors of dipeptidyl peptidase IV and their application for the treatment of diabetes and related diseases” (EMC microcollections GmbH, priority 2009, dated 2011).

Target: T1, human recombinant DPP-IV (Homo sapiens, UniProt P27487)
T1 construct: purchased Enzo Life Sciences AK499-0001
Test: biochemical
Procedure: The potency of the tested compounds is described upon the degree in inhibition of DPP-IV cleavage of the chromogenic substrate Gly-Pro-pNA (pNA is p-nitroaniline), expressed as IC50 values.
The assay was performed in 96-well plates at 37°C. First the enzyme was preincubated with the test compounds for 10 min. Therefore each well was filled with 0.18 mU of enzyme and variable concentrations of the inhibitor. Each well was filled up with Tris buffer (50 mM, pH 7.5) to a final volume of 200 µL. For dilutions of all test compounds DMSO was used.
The assay was repeated 3 times for each test compound. IC50 values were calculated after plotting the data for up to eight inhibitor concentrations by mean.
By measuring the rate of hydrolysis of Gly-Pro-pNA at four different concentrations of substrate and inhibitor the type of inhibition was determined. […] For each concentration of inhibitor the initial rates were used for Lineweaver-Burk plot.

T1 sequence (P27487 whole entry): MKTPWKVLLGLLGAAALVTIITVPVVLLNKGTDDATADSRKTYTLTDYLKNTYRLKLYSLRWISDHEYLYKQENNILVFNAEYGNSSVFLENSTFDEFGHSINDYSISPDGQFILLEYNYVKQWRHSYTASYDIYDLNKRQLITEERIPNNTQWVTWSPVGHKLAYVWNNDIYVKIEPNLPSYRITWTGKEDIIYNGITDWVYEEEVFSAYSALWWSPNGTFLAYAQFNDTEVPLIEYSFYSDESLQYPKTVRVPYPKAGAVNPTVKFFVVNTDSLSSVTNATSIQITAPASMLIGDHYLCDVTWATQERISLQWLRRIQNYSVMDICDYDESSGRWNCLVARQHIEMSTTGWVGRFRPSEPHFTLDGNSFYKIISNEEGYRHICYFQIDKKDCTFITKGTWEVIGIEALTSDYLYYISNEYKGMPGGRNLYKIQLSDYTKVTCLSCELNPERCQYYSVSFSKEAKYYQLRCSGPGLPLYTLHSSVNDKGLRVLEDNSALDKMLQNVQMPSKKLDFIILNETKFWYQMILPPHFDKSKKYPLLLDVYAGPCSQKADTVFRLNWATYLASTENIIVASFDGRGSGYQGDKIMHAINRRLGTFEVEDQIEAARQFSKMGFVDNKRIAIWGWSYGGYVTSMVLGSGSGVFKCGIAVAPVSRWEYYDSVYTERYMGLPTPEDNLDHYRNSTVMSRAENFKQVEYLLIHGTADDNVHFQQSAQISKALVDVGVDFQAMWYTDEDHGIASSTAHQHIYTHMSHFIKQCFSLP

IC50, < 10 µM:
Cc1nc(C(=O)O)cc(-c2ccccc2F)c1CN [(XIV)]
Cc1nc(-c2ccc(Cl)cc2Cl)cc(C(=O)O)c1CN [regioisomer (XV), reference compound]
Cc1nc(C(=O)O)cc(-c2ccc(F)cc2)c1CN [(XIII)]
